# ChEMBL document CHEMBL6103563, “Chiral recognition of CIAC001 isomers in regulating pyruvate kinase M2 and mitigating neuroinflammation” (Eur J Med Chem, 2025)
# Activity calls are given as the source filed them. The calls are words filed in the database; no cut-off is given here.
# Experiments:
# [1] = Tmax in BALB/c mouse plasma at 10 mg/kg, po measured for 4 hrs by MS-HPLC analysis; type: ADME, organism-based
# [2] = Half life in BALB/c mouse brain at 10 mg/kg, po measured for 4 hrs by MS-HPLC analysis; type: ADME, organism-based
# BV-2 [3] = experiment: Anti-neuroinflammatory activity in mouse BV-2 cells assessed as inhibition of LPS-induced NO production incubated for 24 hrs in presence of LPS by fluorescence-based analysis; type: functional, cell-based; conditions: for IC50: BV-2, 24 h
# [4] = Cmax in BALB/c mouse plasma at 10 mg/kg, po measured for 4 hrs by MS-HPLC analysis; type: ADME, organism-based; conditions: in vivo
# BV-2 [5] = experiment: Anti-neuroinflammatory activity in mouse BV-2 cells assessed as inhibition of LPS-induced microglial activation by measuring inhibition of morphological changes at 5 uM incubated for 24 hrs in presence of LPS by inverted microscopic analysis; type: functional, cell-based
# [6] = Cmax in BALB/c mouse brain at 10 mg/kg, po measured for 4 hrs by MS-HPLC analysis; type: ADME, organism-based; conditions: in vivo
# BV-2 [7] = experiment: Anti-neuroinflammatory activity in mouse BV-2 cells assessed as inhibition of LPS-induced IL-1 beta mRNA expression at 1 uM by qRT-PCR analysis; type: functional, cell-based
# Homo sapiens = species: Homo sapiens; experiment: Binding affinity to PKM2 F26A mutant (unknown origin) at 10 to 50 uM by fluorescence titration based spectrophotometric analysis; conditions: dose 10-50 µM
# BV-2 [8] = experiment: Anti-neuroinflammatory activity in mouse BV-2 cells assessed as inhibition of LPS-induced IL-1 beta mRNA expression at 10 uM by qRT-PCR analysis; type: functional, cell-based
# [9] = AUC in BALB/c mouse plasma at 10 mg/kg, po measured for 4 hrs by MS-HPLC analysis; type: ADME, organism-based; conditions: in vivo
# BV-2 [10] = experiment: Inhibition of LPS-inuced nuclear translocation of PKM2 in mouse BV-2 cells assessed as decrease in PKM2 content in nucleus at 5 uM incubated for 6 hrs in presence of LPS by western blot analysis; type: subcellular; conditions: filed as modulator
# [11] = AUC in BALB/c mouse brain at 10 mg/kg, po measured for 4 hrs by MS-HPLC analysis; type: ADME, organism-based; conditions: in vivo
# Mus musculus [12] = experiment: Anti-neuroinflammatory activity in BALB/c mouse assessed as decrease in morphine-induced IL-1 beta mRNA expression in medial prefrontal cortex at 0.2 mg/kg administration started on day 3 after 2 days of chamber habituation followed by treatment with morphine on days 4,6 and 8 and with vehicle on days 5,7 and 9 and measured on day 10 by qRT-PCR analysis; type: functional, organism-based; conditions: time 8.0 day
# [13] = Tmax in BALB/c mouse brain at 10 mg/kg, po measured for 4 hrs by MS-HPLC analysis; type: ADME, organism-based
# Pyruvate kinase PKM [14] = target: T1, Pyruvate kinase PKM (Homo sapiens, UniProt P14618); experiment: Binding affinity to PKM2 (unknown origin) assessed as dissociation constant by fluorescence titration based spectrophotometric analysis
# Target sequence in this assay (P14618 whole entry): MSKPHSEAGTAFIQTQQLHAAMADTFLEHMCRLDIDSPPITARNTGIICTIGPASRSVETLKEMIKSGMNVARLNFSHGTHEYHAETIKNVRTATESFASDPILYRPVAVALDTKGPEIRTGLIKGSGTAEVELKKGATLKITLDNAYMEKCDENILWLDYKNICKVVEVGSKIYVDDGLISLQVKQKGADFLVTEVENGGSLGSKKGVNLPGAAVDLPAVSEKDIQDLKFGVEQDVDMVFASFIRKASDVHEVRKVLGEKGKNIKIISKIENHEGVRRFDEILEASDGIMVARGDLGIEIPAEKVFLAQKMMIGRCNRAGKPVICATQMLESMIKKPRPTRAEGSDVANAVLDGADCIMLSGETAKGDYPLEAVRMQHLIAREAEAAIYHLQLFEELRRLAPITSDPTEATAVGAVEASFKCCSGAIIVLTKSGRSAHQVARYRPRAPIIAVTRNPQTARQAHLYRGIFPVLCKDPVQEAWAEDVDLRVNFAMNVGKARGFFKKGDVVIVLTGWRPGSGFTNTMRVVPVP
# [15] = Ratio of AUC in brain to plasma in BALB/c mouse at 10 mg/kg, po measured for 4 hrs by MS-HPLC analysis; type: ADME, organism-based; conditions: brain and plasma
# [16] = Acute toxicity against BALB/c mouse assessed as mortality at 20 mg/kg, ip measured after 2 hrs; type: organism-based; conditions: in vivo
# [17] = Acute toxicity against BALB/c mouse assessed as changes in body weight at 20 mg/kg, ip measured for 14 days; type: organism-based; conditions: in vivo, 336 h, time 14 day
# [18] = Half life in BALB/c mouse plasma at 10 mg/kg, po measured for 4 hrs by MS-HPLC analysis; type: ADME, organism-based
# [19] = Ratio of Cmax in brain to plasma in BALB/c mouse at 10 mg/kg, po measured for 4 hrs by MS-HPLC analysis; type: ADME, organism-based; conditions: brain and plasma
# Pyruvate kinase PKM [20] = target: T1, Pyruvate kinase PKM; experiment: Binding affinity to PKM2 (unknown origin) assessed as decrease in thermal stabilization of protein by measuring change in melting temperature at 100 uM incubated for 2 hrs at room temperature followed by heating at varying temperatures for 5 mins and later cooled at 25 degC for 3 mins by CETSA analysis; conditions: filed as modulator, time 128.0 min
# Target sequence in this assay (P14618 2-531 limits assumed): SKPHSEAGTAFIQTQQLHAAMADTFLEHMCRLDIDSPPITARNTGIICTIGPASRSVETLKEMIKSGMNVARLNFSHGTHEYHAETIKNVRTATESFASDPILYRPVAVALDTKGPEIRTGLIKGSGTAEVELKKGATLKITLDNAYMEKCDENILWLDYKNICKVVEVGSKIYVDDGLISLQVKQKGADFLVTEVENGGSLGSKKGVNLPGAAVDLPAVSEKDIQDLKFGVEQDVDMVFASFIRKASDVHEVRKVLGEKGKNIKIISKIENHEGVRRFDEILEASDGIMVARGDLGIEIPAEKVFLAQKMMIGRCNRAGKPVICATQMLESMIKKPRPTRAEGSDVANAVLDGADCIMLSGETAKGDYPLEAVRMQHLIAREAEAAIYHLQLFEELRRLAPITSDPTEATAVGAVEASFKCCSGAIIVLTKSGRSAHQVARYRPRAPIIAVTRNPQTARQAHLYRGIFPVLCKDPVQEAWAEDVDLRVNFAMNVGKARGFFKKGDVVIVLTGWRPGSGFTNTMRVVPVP
# Mus musculus [21] = experiment: Anti-morphine addiction activity against BALB/c mouse assessed as decrease in preference for morphine-paired chamber at 0.2 mg/kg administration started on day 3 after 2 days of chamber habituation followed by treatment with morphine on days 4,6 and 8 and with vehicle on days 5,7 and 9 and measured on day 10 by conditional place preference test; type: functional, organism-based; conditions: time 8.0 day
# [22] = Mean residence time in BALB/c mouse brain at 10 mg/kg, po measured for 4 hrs by MS-HPLC analysis; type: ADME, organism-based
# [23] = Mean residence time in BALB/c mouse plasma at 10 mg/kg, po measured for 4 hrs by MS-HPLC analysis; type: ADME, organism-based
# Cannabinoid receptor 1 = Cannabinoid receptor 1 (Homo sapiens, UniProt P21554); experiment: Binding affinity to CB1 receptor (unknown origin)
# Sequence of Cannabinoid receptor 1 (P21554 whole entry): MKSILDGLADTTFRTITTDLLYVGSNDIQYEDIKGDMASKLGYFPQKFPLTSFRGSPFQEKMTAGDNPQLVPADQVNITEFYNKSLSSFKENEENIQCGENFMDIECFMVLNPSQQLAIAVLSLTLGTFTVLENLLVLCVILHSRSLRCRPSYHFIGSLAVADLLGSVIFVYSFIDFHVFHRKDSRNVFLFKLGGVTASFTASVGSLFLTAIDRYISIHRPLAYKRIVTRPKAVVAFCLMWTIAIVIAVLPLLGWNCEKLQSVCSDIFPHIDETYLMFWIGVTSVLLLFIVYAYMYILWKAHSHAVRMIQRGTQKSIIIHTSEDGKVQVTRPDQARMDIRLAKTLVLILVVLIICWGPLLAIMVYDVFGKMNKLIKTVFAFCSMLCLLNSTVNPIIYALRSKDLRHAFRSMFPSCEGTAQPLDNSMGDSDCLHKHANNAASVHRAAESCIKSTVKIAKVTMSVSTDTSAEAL
# Cannabinoid receptor 2 = Cannabinoid receptor 2 (Homo sapiens, UniProt P34972); experiment: Binding affinity to CB2 receptor (unknown origin)
# Sequence of Cannabinoid receptor 2 (P34972 whole entry): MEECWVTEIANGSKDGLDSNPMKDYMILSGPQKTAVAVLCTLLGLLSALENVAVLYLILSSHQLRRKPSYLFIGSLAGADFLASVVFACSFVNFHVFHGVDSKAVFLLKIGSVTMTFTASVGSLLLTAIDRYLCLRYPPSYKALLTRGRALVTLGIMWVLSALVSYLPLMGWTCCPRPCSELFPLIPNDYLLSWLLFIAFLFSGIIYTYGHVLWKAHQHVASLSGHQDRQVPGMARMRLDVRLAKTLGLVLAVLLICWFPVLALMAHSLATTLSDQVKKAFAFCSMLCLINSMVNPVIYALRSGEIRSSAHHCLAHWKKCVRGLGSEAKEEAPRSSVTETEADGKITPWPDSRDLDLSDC
compound,measurement,setting,value
C=C(C)[C@@H]1CCC(C)=C[C@H]1c1c(O)cc([C@H](C)n2nccn2)cc1O,Tmax,[1],30 min
same,half-life,[2],48 min
same,Activity,BV-2 [3],Dose-dependent-effect
same,IC50,BV-2 [3],3300 nM
same,Cmax,[4],46.6 ng/mg
same,Activity,BV-2 [5],Active
same,Cmax,[6],130 ng/mg
same,Activity,BV-2 [7],Active
same,Activity,Homo sapiens,inactive
same,Activity,BV-2 [8],Active
same,AUC,[9],75.5 ng·h/g
same,inhibition,BV-2 [10],Active
same,AUC,[11],137.7 ng·h/g
same,Activity,Mus musculus [12],Active
same,Tmax,[13],18 min
same,Kd,Pyruvate kinase PKM [14],2200 nM
same,Kp at 4 h,[15],> 2
same,Activity,[16],Non-toxic
same,Activity,[17],Non-toxic
same,half-life,[18],42 min
same,Kp at 4 h,[19],3
same,ΔTm,Pyruvate kinase PKM [20],4.1 °C
same,Activity,Mus musculus [21],Active
same,MRT,[22],102 min
same,MRT,[23],72 min
C=C(C)[C@@H]1CCC(C)=C[C@H]1c1c(O)cc([C@@H](C)n2nccn2)cc1O,IC50,BV-2 [3],13200 nM
same,Activity,BV-2 [5],Active; Lessened Effect Observed
same,Activity,BV-2 [8],Active
same,inhibition,BV-2 [10],Active; Weak Inhibitory Effect Observed
same,Activity,Mus musculus [12],Active; Minimal Effect Observed
same,ΔTm,Pyruvate kinase PKM [20],1.6 °C
same,Activity,Mus musculus [21],inactive
CCCCCCC(C)(C)c1cc(O)c2c(c1)OC(C)(C)c1ccc(C)c(CO)c1-2,Ki,Cannabinoid receptor 1,0.066 nM
same,Ki,Cannabinoid receptor 2,96 nM
C=C(C)[C@H]1CCC(C)=C[C@@H]1c1c(O)cc([C@H](C)n2nccn2)cc1O,IC50,BV-2 [3],> 30000 nM
C=C(C)[C@H]1CCC(C)=C[C@@H]1c1c(O)cc([C@@H](C)n2nccn2)cc1O,IC50,BV-2 [3],> 30000 nM
